According to PubChem BioAssay (NCI):
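Dose response: 5 concentrations. Exposure: 48 h. Format: 96-well plates. Endpoint: linear interpolation; highest concentration if not reached. GI50 marks 50% less growth. TGI denotes the concentration required for complete inhibition of growth.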

Key:
Assay in all cases: inhibition of tumour cell growth, NCI panel, 48 h
UACC-62 melanoma = tested on: UACC-62 melanoma
DU-145 prostate = tested on: DU-145 prostate
CAKI-1 renal = tested on: CAKI-1 renal
ACHN renal = tested on: ACHN renal
SN12C renal = tested on: SN12C renal
OVCAR-8 ovarian = tested on: OVCAR-8 ovarian
NCI-H460 lung = tested on: NCI-H460 lung
SK-MEL-2 melanoma = tested on: SK-MEL-2 melanoma
SK-MEL-28 melanoma = tested on: SK-MEL-28 melanoma
MCF7 breast = tested on: MCF7 breast
TK-10 renal = tested on: TK-10 renal
NCI/ADR-RES ovarian = tested on: NCI/ADR-RES ovarian
HL-60(TB) leukemia = tested on: HL-60(TB) leukemia
RXF 393 renal = tested on: RXF 393 renal
CCRF-CEM leukemia = tested on: CCRF-CEM leukemia
HT29 colon = tested on: HT29 colon
MDA-MB-231 breast = tested on: MDA-MB-231 breast
786-0 renal = tested on: 786-0 renal
HS 578T breast = tested on: HS 578T breast
SF-268 CNS = tested on: SF-268 CNS
HCT-15 colon = tested on: HCT-15 colon
MDA-MB-435 = tested on: MDA-MB-435
K-562 leukemia = tested on: K-562 leukemia
LOX IMVI melanoma = tested on: LOX IMVI melanoma
SR leukemia = tested on: SR leukemia
OVCAR-5 ovarian = tested on: OVCAR-5 ovarian
SK-MEL-5 melanoma = tested on: SK-MEL-5 melanoma
SNB-75 CNS = tested on: SNB-75 CNS
A498 renal = tested on: A498 renal
MOLT-4 leukemia = tested on: MOLT-4 leukemia
IGROV1 ovarian = tested on: IGROV1 ovarian
OVCAR-4 ovarian = tested on: OVCAR-4 ovarian
M14 melanoma = tested on: M14 melanoma
KM12 colon = tested on: KM12 colon
HOP-92 NSCLC = tested on: HOP-92 NSCLC
SNB-19 CNS = tested on: SNB-19 CNS
HCC-2998 colon = tested on: HCC-2998 colon
SF-295 CNS = tested on: SF-295 CNS
HCT-116 colon = tested on: HCT-116 colon
RPMI-8226 leukemia = tested on: RPMI-8226 leukemia
NCI-H226 lung = tested on: NCI-H226 lung
HOP-62 NSCLC = tested on: HOP-62 NSCLC
NCI-H522 lung = tested on: NCI-H522 lung
UO-31 renal = tested on: UO-31 renal
OVCAR-3 ovarian = tested on: OVCAR-3 ovarian
T-47D breast = tested on: T-47D breast
SK-OV-3 ovarian = tested on: SK-OV-3 ovarian
UACC-257 melanoma = tested on: UACC-257 melanoma
SW-620 colon = tested on: SW-620 colon
SF-539 CNS = tested on: SF-539 CNS
COLO 205 colon = tested on: COLO 205 colon
PC-3 prostate = tested on: PC-3 prostate
U251 CNS = tested on: U251 CNS
MALME-3M melanoma = tested on: MALME-3M melanoma
NCI-H23 lung = tested on: NCI-H23 lung
A549 NSCLC = tested on: A549 NSCLC
BT-549 breast = tested on: BT-549 breast

COc1ccc(-c2nc3sc(-c4cc(OC)c(OC)c(OC)c4)nn3c2/C=C2/C(=O)Nc3ccc(F)cc32)cc1
GI50 (UACC-62 melanoma): 13.3 µM | TGI (UACC-62 melanoma): 33.4 µM | GI50 (DU-145 prostate): 1.87 µM | TGI (DU-145 prostate): 4.53 µM | GI50 (CAKI-1 renal): 4.48 µM | TGI (CAKI-1 renal): 20 µM | GI50 (ACHN renal): 3.29 µM | TGI (ACHN renal): 15.3 µM | GI50 (SN12C renal): 14.2 µM | TGI (SN12C renal): 40.1 µM | GI50 (OVCAR-8 ovarian): 5.34 µM | TGI (OVCAR-8 ovarian): > 100 µM | GI50 (NCI-H460 lung): 3.42 µM | TGI (NCI-H460 lung): 15.3 µM | GI50 (SK-MEL-2 melanoma): 5.58 µM | TGI (SK-MEL-2 melanoma): 17.6 µM | GI50 (SK-MEL-28 melanoma): 9.58 µM | TGI (SK-MEL-28 melanoma): 27.8 µM | GI50 (MCF7 breast): 1.66 µM | TGI (MCF7 breast): 6.32 µM | GI50 (TK-10 renal): 2.26 µM | TGI (TK-10 renal): 4.23 µM | GI50 (NCI/ADR-RES ovarian): 21.9 µM | TGI (NCI/ADR-RES ovarian): > 100 µM | GI50 (HL-60(TB) leukemia): 2.17 µM | TGI (HL-60(TB) leukemia): 70.3 µM | GI50 (RXF 393 renal): 3.96 µM | TGI (RXF 393 renal): 18.7 µM | GI50 (CCRF-CEM leukemia): 5.49 µM | TGI (CCRF-CEM leukemia): > 100 µM | GI50 (HT29 colon): 2.18 µM | TGI (HT29 colon): 4.68 µM | GI50 (MDA-MB-231 breast): 5.25 µM | TGI (MDA-MB-231 breast): 20.7 µM | GI50 (786-0 renal): 16 µM | TGI (786-0 renal): 32.7 µM | GI50 (HS 578T breast): 16.2 µM | TGI (HS 578T breast): > 100 µM | GI50 (SF-268 CNS): 4.4 µM | TGI (SF-268 CNS): 33.1 µM | GI50 (HCT-15 colon): 2.5 µM | TGI (HCT-15 colon): > 100 µM | GI50 (MDA-MB-435): 3.39 µM | TGI (MDA-MB-435): 14 µM | GI50 (K-562 leukemia): 13.1 µM | TGI (K-562 leukemia): > 100 µM | GI50 (LOX IMVI melanoma): 6.88 µM | TGI (LOX IMVI melanoma): 37.6 µM | GI50 (SR leukemia): 23.5 µM | TGI (SR leukemia): > 100 µM | GI50 (OVCAR-5 ovarian): 6.14 µM | TGI (OVCAR-5 ovarian): 21.7 µM | GI50 (SK-MEL-5 melanoma): 1.64 µM | TGI (SK-MEL-5 melanoma): 3.65 µM | GI50 (SNB-75 CNS): 10.3 µM | TGI (SNB-75 CNS): 22.6 µM | GI50 (A498 renal): 12.2 µM | TGI (A498 renal): 30.6 µM | GI50 (MOLT-4 leukemia): 4.54 µM | TGI (MOLT-4 leukemia): > 100 µM | GI50 (IGROV1 ovarian): 3.39 µM | TGI (IGROV1 ovarian): 12.7 µM | GI50 (OVCAR-4 ovarian): 1.77 µM | TGI (OVCAR-4 ovarian): 4.51 µM | GI50 (M14 melanoma): 5.51 µM | TGI (M14 melanoma): 28.1 µM | GI50 (KM12 colon): 4.04 µM | TGI (KM12 colon): 15.7 µM | GI50 (HOP-92 NSCLC): 2.02 µM | TGI (HOP-92 NSCLC): 9.48 µM | GI50 (SNB-19 CNS): 15.1 µM | TGI (SNB-19 CNS): 44 µM | GI50 (HCC-2998 colon): 5.25 µM | TGI (HCC-2998 colon): 22 µM | GI50 (SF-295 CNS): 3 µM | TGI (SF-295 CNS): 10.8 µM | GI50 (HCT-116 colon): 14.2 µM | TGI (HCT-116 colon): 40.5 µM | GI50 (RPMI-8226 leukemia): 11.3 µM | TGI (RPMI-8226 leukemia): 64.6 µM | GI50 (NCI-H226 lung): 16.8 µM | TGI (NCI-H226 lung): 36.7 µM | GI50 (HOP-62 NSCLC): 1.94 µM | TGI (HOP-62 NSCLC): 4.74 µM | GI50 (NCI-H522 lung): 5.44 µM | TGI (NCI-H522 lung): 18 µM | GI50 (UO-31 renal): 15 µM | TGI (UO-31 renal): 29.7 µM | GI50 (OVCAR-3 ovarian): 2.32 µM | TGI (OVCAR-3 ovarian): 5.27 µM | GI50 (T-47D breast): 2.01 µM | TGI (T-47D breast): 5.16 µM | GI50 (SK-OV-3 ovarian): 2.84 µM | TGI (SK-OV-3 ovarian): 7.34 µM | GI50 (UACC-257 melanoma): 3.35 µM | TGI (UACC-257 melanoma): 11.3 µM | GI50 (SW-620 colon): 3.22 µM | TGI (SW-620 colon): 14.8 µM | GI50 (SF-539 CNS): 56 µM | TGI (SF-539 CNS): > 100 µM | GI50 (COLO 205 colon): 1.61 µM | TGI (COLO 205 colon): 4.13 µM | GI50 (PC-3 prostate): 24.7 µM | TGI (PC-3 prostate): 65.3 µM | GI50 (U251 CNS): 1.77 µM | TGI (U251 CNS): 3.39 µM | GI50 (MALME-3M melanoma): 9.15 µM | TGI (MALME-3M melanoma): 29.9 µM | GI50 (NCI-H23 lung): 4.25 µM | TGI (NCI-H23 lung): 21.5 µM | GI50 (A549 NSCLC): 2.13 µM | TGI (A549 NSCLC): 5.26 µM | GI50 (BT-549 breast): 14.9 µM | TGI (BT-549 breast): 74.6 µM
